According to PubChem BioAssay AID504897 (Southern Research Specialized Biocontainment Screening …, 2011):
Active and inactive are the calls of the source. No rule for the calls is given here.

Columns and labels:
[1] = tested on: Mycobacterium tuberculosis H37Rv growth inhibition, 7H9 medium; test: M. tuberculosis growth inhibition, dose response, H37Rv, 7H9 media, purified and synthesized compounds, set 6 (AID 504897); conditions: for IC50: measured here: IC50 of Mtb growth inhibition
[2] = as above; conditions: Mycobacterium tuberculosis H37Rv growth inhibition, 7H9 medium; at 100 µM (top of the series)

Row | SMILES | IC90 [1] | IC50 [1] | inhibition [2]
1 | O=C(CSc1nc2c(c(=O)[nH]1)CCC2)NC1CCCCC1 | < 0.069 µM | < 0.034 µM | –
2 | CC1CCN(C(=O)C2CCN(c3nnc(-n4cccc4)s3)CC2)CC1 | 3.9 µM | 2.75 µM | –
3 | NC(=O)CSc1nc2ccccc2c(=O)[nH]1 | – | – | 3.52% (inactive)
4 | COC(=O)c1ccc(CNc2c(N3CCCC3)c(=O)c2=O)cc1 | – | > 100 µM | –
5 | CCC(Sc1nc2c(c(=O)[nH]1)CCC2)C(=O)Nc1cccc(OC)c1 (centres undefined) | – | – | 1.68% (inactive)
6 | COc1cccc(NC(=O)CSc2nc3c(c(=O)[nH]2)CCC3)c1 | – | – | -0.07% (inactive)
7 | Cc1cc(=O)[nH]c(=S)[nH]1 | – | – | -3.5% (inactive)
8 | Cc1[nH]c(=S)[nH]c(=O)c1C | – | – | -0.2% (inactive)
9 | CCSc1nc2ccccc2c(=O)[nH]1 | – | – | -6.01% (inactive)
10 | CC(C)NC(=O)CSc1nc2ccccc2c(=O)[nH]1 | 14.2 µM | 5.84 µM | –
11 | CCCCNC(=O)CSc1nc2ccccc2c(=O)[nH]1 | 1.21 µM | 0.055 µM | –
12 | O=C(CSc1ncccn1)NC1CCCCC1 | – | – | -0.52% (inactive)
13 | CC(C)CCNC(=O)CSc1nc2ccccc2c(=O)[nH]1 | < 0.136 µM | < 0.081 µM | –
14 | NC(=O)c1cnccn1 | – | > 100 µM | –
15 | NC[C@H]1O[C@H](O[C@H]2[C@H](O)[C@@H](O[C@H]3O[C@H](CO)[C@@H](O)[C@H](N)[C@H]3O)[C@H](N)C[C@@H]2N)[C@H](O)[C@@H](O)[C@@H]1O | 2.12 µM | 1.39 µM | –
16 | Cc1cc(=O)[nH]c(SCC(=O)NC2CCCCC2)n1 | – | – | 0.97% (inactive)
17 | COc1c(N2CCNC(C)C2)c(F)cc2c(=O)c(C(=O)O)cn(C3CC3)c12 (centres undefined) | 0.162 µM | 0.113 µM | –
18 | CCCc1cc(C(N)=S)ccn1 | – | 7.24 µM | –
19 | NNC(=O)c1ccncc1 | 0.294 µM | 0.175 µM | –
20 | CC(Sc1nc2ccccc2c(=O)[nH]1)C(=O)NC1CCCCC1 (centres undefined) | – | – | -1.17% (inactive)
21 | O=c1[nH]c(=S)[nH]c2ccccc12 | – | – | -4.69% (inactive)
22 | Cc1cnc(SCC(=O)NC2CCCCC2)[nH]c1=O | – | – | 0.5% (inactive)
23 | Nc1cc(=O)[nH]c(SCC(=O)NC2CCCCC2)n1 | – | – | -4.53% (inactive)

Row | SMILES | IC90 [1] | IC50 [1] | inhibition [2]
24 | O=C(CSc1nccc(=O)[nH]1)NC1CCCCC1 | – | – | 0.9% (inactive)
25 | Nc1c(C(=O)NC2CCCCC2)nsc1C(=O)OCC(=O)NC1CCCCC1 | 7.45 µM | 2.13 µM | –
26 | Cc1cccc(/C=C/C(=O)c2ccc([N+](=O)[O-])o2)c1 | 0.938 µM | 0.495 µM | –
27 | CN(C(=O)CSc1nc2ccccc2c(=O)[nH]1)C1CCCCC1 | – | – | -1.28% (inactive)
28 | CCC(Sc1nc2ccccc2c(=O)[nH]1)C(=O)NC1CCCCC1 (centres undefined) | – | – | 1.35% (inactive)
29 | CCC(Sc1nc2ccccc2c(=O)[nH]1)C(=O)Nc1cccc(OC)c1 (centres undefined) | – | – | 4.58% (inactive)
30 | CC1CCN(C(=O)CSc2nc3ccccc3c(=O)[nH]2)CC1 | – | – | 3.89% (inactive)
31 | Cc1cc(C)n2nc(N)c(N=Nc3ccccc3)c2n1 | 6.01 µM | 4.94 µM | –
32 | CNC(=O)CSc1nc2ccccc2c(=O)[nH]1 | 68.1 µM | 43.9 µM | –
33 | Cc1[nH]c2ccccc2c1C(=O)COC(=O)c1ccc([N+](=O)[O-])s1 | – | > 67.4 µM | –
34 | O=C(CSc1nc2c(c(=O)[nH]1)CCCC2)NC1CCCCC1 | 0.081 µM | < 0.037 µM | –
35 | CCOC1OC(=O)C(Cl)=C1Nc1ccccc1C (centres undefined) | 5.92 µM | 3.22 µM | –
36 | Cc1cccc(-c2oc3ccc(-c4ccc5c(c4)OCO5)cc3c2C#Cc2cncn2C)c1 | 2.98 µM | 2.41 µM | –
37 | COc1cccc(NC(=O)CSc2nc3ccccc3c(=O)[nH]2)c1 | – | – | -3.46% (inactive)
38 | Cc1nc(SCC(=O)NCCC(C)C)[nH]c(=O)c1C | 8.75 µM | 4.9 µM | –
39 | CC[N+](C)(CC)CCCCOc1ccc2c(c1)C(=O)c1cc(OCCCC[N+](C)(CC)CC)ccc1-2 | 2.65 µM | 1.77 µM | –
40 | CN[C@@H]1[C@H](O[C@H]2[C@H](O[C@H]3[C@H](O)[C@@H](O)[C@H](N=C(N)N)[C@@H](O)[C@@H]3N=C(N)N)O[C@@H](C)[C@]2(O)C=O)O[C@@H](CO)[C@H](O)[C@H]1O | 0.176 µM | 0.101 µM | –
41 | Cc1nc(SCc2ccccc2Cl)[nH]c(=O)c1C | – | – | -10.5% (inactive)
42 | Cc1ccc(NC(=O)COC(=O)CCc2c[nH]c3ccccc23)cc1[N+](=O)[O-] | 4.37 µM | 1.34 µM | –
43 | Cc1ccc(C(=O)N/N=C(/CC(=O)c2cccs2)C(F)(F)F)cc1 | 3.1 µM | 1.93 µM | –
44 | Cc1c[nH]c(=S)[nH]c1=O | – | – | -0.98% (inactive)
45 | Cc1nc(SCC(N)=O)[nH]c(=O)c1C | – | – | -2.86% (inactive)
46 | CC(C)CNC(=O)CSc1nc2ccccc2c(=O)[nH]1 | 0.432 µM | 0.173 µM | –

Row | SMILES | IC90 [1] | IC50 [1] | inhibition [2]
47 | Cn1c(SCC(=O)NC2CCCCC2)nc2ccccc2c1=O | – | – | -2.65% (inactive)
48 | c1ccc(/N=C2\N=C(Nc3ccccn3)c3ccccc32)nc1 | 1.76 µM | 1.18 µM | –
49 | Cc1nc(SCC(=O)NC2CCCC2)[nH]c(=O)c1C | 8.89 µM | 5.12 µM | –
50 | Cc1cc(Br)ccc1NC(=O)c1cnc(N2CCN(c3ccccn3)CC2)c2ccccc12 | 2.79 µM | 0.887 µM | –
51 | CCOc1ccc(-c2cc(C)[n+](CCc3ccc(OC)c(OC)c3)c(-c3ccc(OCC)cc3)c2)cc1 | 0.954 µM | 0.568 µM | –
52 | CC(C)N=c1cc2n(-c3ccc(Cl)cc3)c3ccccc3nc-2cc1Nc1ccc(Cl)cc1 | 0.396 µM | 0.067 µM | –
53 | CN1CCC(NC(=O)CSc2nc3ccccc3c(=O)[nH]2)CC1 | – | – | -4.24% (inactive)
54 | O=C(CSc1nc2ccccc2c(=O)[nH]1)N1CCOCC1 | – | – | 6.74% (inactive)
55 | Cc1nc(SCC(=O)NC2CCCCC2)[nH]c(=O)c1C | 1.32 µM | < 0.006 µM | –
56 | CCSc1nc(C)c(C)c(=O)[nH]1 | – | – | 0.94% (inactive)
57 | Cc1ccc(NC(=O)CSc2nc3ccccc3c(=O)[nH]2)cc1Cl | – | – | -4.35% (inactive)
58 | O=c1[nH]c(SCc2ccccc2Cl)nc2c1CCCC2 | – | – | 1.13% (inactive)
59 | COC(=O)C(C)Oc1ccc(Cc2ncc(C(F)(F)F)cc2Cl)cc1 (centres undefined) | 6.75 µM | 3.5 µM | –
60 | CN(C)C(=O)CSc1nc2ccccc2c(=O)[nH]1 | – | – | 0.96% (inactive)
61 | O=C(CSc1nc2ccccc2c(=O)[nH]1)NC1CCCC1 | 0.535 µM | 0.089 µM | –
62 | COc1ccc(NC(=O)CSc2nc3ccccc3c(=O)[nH]2)cc1 | – | – | 1.71% (inactive)
63 | O=C(CSc1ccccn1)NC1CCCCC1 | – | > 100 µM | –
64 | CCOC(=O)CSc1nc(C)c(C)c(=O)[nH]1 | – | – | 3.07% (inactive)
65 | COC(=O)C(Nc1nc(SCC(=O)NC2CCCCC2)nc2ccccc12)c1ccccc1 (centres undefined) | – | – | 9.91% (inactive)
66 | O=C(CSc1nc2ccccc2c(=O)[nH]1)NCc1ccc(Cl)cc1 | 0.973 µM | 0.554 µM | –
67 | Cc1nc(SCC(=O)N(C)c2ccccc2)[nH]c(=O)c1C | – | – | -3.37% (inactive)
68 | CC(C)CCNC(=O)CSc1nc2c(c(=O)[nH]1)CCC2 | 0.947 µM | 0.722 µM | –
